The values below come from patent publication US20100179209A1, “Pactimibe medicaments for preventing/treating a disease due to sebaceous gland dysfunction in humans or animals” (GALDERMA RESEARCH & DEVELOPMENT, priority 2007, published 2010).

In one data set the test system is sebum production. The note with it: administration of isotretinoin, current treatment; cited from earlier work.
The test system of a further data set is sebaceous glands. The experiment in a line: Study of the properties of pactimibe: sebum production by the sebaceous glands.
A short description of data set [1]: Study of the properties of pactimibe: toxicity.
Another data set has as its system ACAT/SOAT enzyme. The experiment in a line: Measurement of ACAT/SOAT activity (NBD-cholesterol fluorescence assay in HepG2 cells). Particulars: NBD-cholesterol 1 μg/ml, incubation 6 h at 37° C., read-out: inhibition of cholesterol ester synthesis, IC50. The class given is cell-based. From the text:
Measurement of ACAT/SOAT Activity:
The objective of this test is to visualize the activity of the ACAT/SOAT enzyme on the synthesis of cholesterol esters.
The test is based on the following publication: “Identification of ACAT1- and ACAT2-specific inhibitors using a novel, cell based fluorescence assay: individual ACAT uniqueness”, J. Lipid Res., (2004) vol. 45, pages 378-386.
The principle of this test is based on the use of NBD-cholesterol, which is a cholesterol analogue of which the fluorescence is dependent on its environment. When said analogue is in a polar environment, it is weakly fluorescent, whereas in a non-polar environment, it is strongly fluorescent. Free NBD-cholesterol is localized in the cell membranes and is weakly fluorescent in this polar environment. When NBD-cholesterol is esterified by ACAT, the NBD-cholesterol ester is localized in non-polar lipid droplets and is therefore strongly fluorescent.
HepG2 cells are incubated in the presence of NBD-cholesterol (1 μg/ml) and of the test product in transparent-bottomed black 96-well plates at a rate of 30 000 cells per well. […] After the addition of 50 μl of lysis buffer (10 mM NaPO4, 1% Igepal), the plates are shaken for 5 min and read by fluorescence (excitation 490 nm, emission 540 nm) on the Fusion instrument (Perkin Elmer).

pIC50: −log10 of the molar value.

Take `CC1=C(/C=C/C(C)=C/C=C/C(C)=C\C(=O)O)C(C)(C)CCC1` [isotretinoin]: in the data set with sebum production, the “decrease of sebum production” value was approximately 90% and the side effects result was “considerable side effects”.

Usually pIC50 stands for the IC50 on a negative log10 scale, so that one unit is a factor of ten. For the compound `CCCCCCCCN1CCc2c(C)c(CC(=O)O)c(C)c(NC(=O)C(C)(C)C)c21` [pactimibe, N-(1-octyl-5-carboxymethyl-4,6-dimethylindolin-7-yl)-2,2-dimethylpropanamide], in the data set with sebaceous glands, the “sebum production by the sebaceous glands” value is “reduce sebum production”. For the same compound, the toxicity entry in data set [1] is “not toxic”. Further, the pIC50 in the data set on ACAT/SOAT enzyme is 7.30.
